For 19 compounds, inhibition, Activity and IC50 results are on record in ChEMBL document CHEMBL5321281, “Synthesis and Biological Evaluation of Heterocyclic Ring-Fused 20(S)-Protopanaxadiol Derivatives as Potent Antiosteoporosis Agents” (J Med Chem, 2023).

pIC50: −log10 of the molar value. Bounds are passed on as bounds.

Series [1] has as its system BMMC. Description: Anti-osteoclastogenic activity in C57/BL6 mouse BMMC cells assessed as inhibition of RANKL-induced osteoclast differentiation at 1 uM incubated for 5 to 7 days in presence of M-CSF by TRAP staining based microscopic analysis relative to control. In kind it is functional. Particulars: time 5-7 day.
Series [2] deals with BMMC. In words: Anti-osteoclastogenic activity in C57/BL6 mouse BMMC cells assessed as inhibition of RANKL-induced osteoclast differentiation at 5 uM incubated for 5 to 7 days in presence of M-CSF by TRAP staining based microscopic analysis relative to control. In kind it is functional. To be noted: time 5-7 day.
Series [3] concerns BMMC. In words: Cytotoxicity against C57/BL6 mouse BMMC cells assessed as reduction in cell viability at 10 uM incubated for 24 hrs by CCK-8 assay. In kind it is toxicity, cell-based.
The test system of series [4] is BMMC. Description: Anti-osteoclastogenic activity in C57/BL6 mouse BMMC cells assessed as inhibition of RANKL-induced osteoclast differentiation at 0.1 uM incubated for 5 to 7 days in presence of M-CSF by TRAP staining based microscopic analysis relative to control. In kind it is functional. To be noted: time 5-7 day.
For series [5], the system named is BMMC. Description: Anti-osteoclastogenic activity in C57/BL6 mouse BMMC cells assessed as inhibition of RANKL-induced osteoclast differentiation at 0.01 uM incubated for 5 to 7 days in presence of M-CSF by TRAP staining based microscopic analysis relative to control. Particulars: time 5-7 day. In kind it is functional.
Series [6] has as its system BMMC. Description: Anti-osteoclastogenic activity in C57/BL6 mouse BMMC cells assessed as inhibition of RANKL-induced osteoclast differentiation incubated for 5 to 7 days in presence of M-CSF by TRAP staining based microscopic analysis relative to control. In kind it is functional, cell-based.

`CC(C)=CCC[C@](C)(O)[C@H]1CC[C@]2(C)[C@@H]1[C@H](O)C[C@@H]1[C@@]3(C)Cc4cncnc4C(C)(C)[C@@H]3CC[C@]12C`: the inhibition at 1 µM with BMMC [1] was 95.3%. Moreover, the inhibition at 5 µM in the series with BMMC [2] turned out to be 100%. Moreover, the Activity entry in the series on BMMC [3] is “>= 100%”. For the same compound, in the series with BMMC [4], the inhibition at 0.1 µM worked out at 51.9%.

Consider `CC(C)=CCC[C@](C)(O)[C@H]1CC[C@]2(C)[C@@H]1[C@H](O)C[C@@H]1[C@@]3(C)Cc4cnc(C)nc4C(C)(C)[C@@H]3CC[C@]12C`, for which the inhibition at 1 µM with BMMC [1] is 100%. The Activity entry in the series with BMMC [3] is “>= 100%”. Moreover, the inhibition at 0.1 µM in the series with BMMC [4] was 96.8%. Moreover, the inhibition at 0.01 µM with BMMC [5] is 34.5%.

Regarding `CC(C)=CCC[C@](C)(O)[C@H]1CC[C@]2(C)[C@@H]1[C@H](O)C[C@@H]1[C@@]3(C)Cc4cn[nH]c4C(C)(C)[C@@H]3CC[C@]12C`, in the series on BMMC [1], the inhibition at 1 µM was 41.2%. In the series with BMMC [2], the inhibition at 5 µM came to 84.8%. The Activity entry in the series with BMMC [3] is “>= 100%”.

As for `Cc1ncc2c(n1)C(C)(C)[C@@H]1CC[C@]3(C)[C@H](C[C@@H](O)[C@@H]4[C@@H]([C@@](C)(O)CCCC(C)C)CC[C@]43C)[C@@]1(C)C2`, the Activity result in the series with BMMC [3] is given as “>= 100%”. For the same compound, the inhibition at 0.1 µM in the series with BMMC [4] stood at 96%. Also, in the series with BMMC [5], the inhibition at 0.01 µM was 9.2%.

Regarding `CC(C)=CCC[C@](C)(O)[C@H]1CC[C@]2(C)[C@@H]1/C(=N/O)C[C@@H]1[C@@]3(C)Cc4cnc(C)nc4C(C)(C)[C@@H]3CC[C@]12C`, the Activity entry in the series on BMMC [3] is “>= 100%”. The inhibition at 0.1 µM in the series on BMMC [4] was 61.1%. The inhibition at 0.01 µM in the series on BMMC [5] was 0%.

In the case of `CC(=O)O[C@@H]1C[C@@H]2[C@@]3(C)Cc4cnc(C)nc4C(C)(C)[C@@H]3CC[C@@]2(C)[C@]2(C)CC[C@H]([C@@](C)(O)CCC=C(C)C)[C@@H]12`, in the series on BMMC [3], the Activity result is listed as “>= 100%”. Besides, the inhibition at 0.1 µM with BMMC [4] was 62.2%. Moreover, the inhibition at 0.01 µM in the series on BMMC [5] turned out to be 6.68%.

In the case of `CC(C)=CCC[C@](C)(O)[C@H]1CC[C@]2(C)[C@@H]1C(=O)C[C@@H]1[C@@]3(C)Cc4cnc(C)nc4C(C)(C)[C@@H]3CC[C@]12C`, the Activity result in the series on BMMC [3] is listed as “>= 100%”. Besides, in the series with BMMC [4], the inhibition at 0.1 µM came to 75.8%. Moreover, the inhibition at 0.01 µM with BMMC [5] was 8.68%.

`CC(C)=CCC[C@](C)(O)[C@H]1CC[C@]2(C)[C@@H]1[C@H](O)C[C@@H]1[C@@]3(C)Cc4cnoc4C(C)(C)[C@@H]3CC[C@]12C`: in the series on BMMC [1], the inhibition at 1 µM turned out to be 3.2%. The inhibition at 5 µM in the series with BMMC [2] was determined as 71.5%. For the same compound, in the series with BMMC [3], the Activity entry is reported as “>= 100%”.

In the case of `CCOc1ncc2c(n1)C(C)(C)[C@@H]1CC[C@]3(C)[C@H](C[C@@H](O)[C@@H]4[C@@H]([C@@](C)(O)CCC=C(C)C)CC[C@]43C)[C@@]1(C)C2`, the inhibition at 1 µM in the series on BMMC [1] worked out at 94.1%. Also, in the series on BMMC [3], the Activity amounted to 86.9%. In addition, the inhibition at 0.1 µM in the series with BMMC [4] was found to be 45.7%.

In the case of `COc1ncc2c(n1)C(C)(C)[C@@H]1CC[C@]3(C)[C@H](C[C@@H](O)[C@@H]4[C@@H]([C@@](C)(O)CCC=C(C)C)CC[C@]43C)[C@@]1(C)C2`, the inhibition at 1 µM in the series on BMMC [1] worked out at 93.7%. Also, the Activity entry in the series on BMMC [3] is given as “>= 100%”. Further, the inhibition at 0.1 µM in the series with BMMC [4] turned out to be 52.6%.

For the compound `CC(C)=CC/C=C(\C)[C@H]1CC[C@]2(C)[C@@H]1[C@H](O)C[C@@H]1[C@@]3(C)Cc4cnc(C)nc4C(C)(C)[C@@H]3CC[C@]12C`, the Activity entry with BMMC [3] is “>= 100%”. In the series with BMMC [4], the inhibition at 0.1 µM was determined as 96.8%. For the same compound, the inhibition at 0.01 µM in the series on BMMC [5] was found to be 27.4%.

In the case of `CC(C)=CCC[C@](C)(O)[C@H]1CC[C@]2(C)[C@@H]1[C@H](O)C[C@@H]1[C@@]3(C)CC[C@H](O)C(C)(C)[C@@H]3CC[C@]12C`, the inhibition at 1 µM in the series with BMMC [1] amounted to 10.2%. Further, the inhibition at 5 µM in the series with BMMC [2] came out at 63.9%. The Activity entry in the series with BMMC [3] is given as “>= 100%”. In addition, in the series on BMMC [6], the pIC50 was 4.93.

Regarding `CCc1ncc2c(n1)C(C)(C)[C@@H]1CC[C@]3(C)[C@H](C[C@@H](O)[C@@H]4[C@@H]([C@@](C)(O)CCC=C(C)C)CC[C@]43C)[C@@]1(C)C2`, the inhibition at 1 µM in the series on BMMC [1] was found to be 100%. For the same compound, the Activity entry with BMMC [3] is given as “>= 100%”. Also, the inhibition at 0.1 µM with BMMC [4] worked out at 90.4%.

With `CC(C)=CCC[C@](C)(O)[C@H]1CC[C@]2(C)[C@@H]1[C@H](O)C[C@@H]1[C@@]3(C)Cc4nonc4C(C)(C)[C@@H]3CC[C@]12C`, the inhibition at 1 µM in the series with BMMC [1] came to 18.8%. In addition, the inhibition at 5 µM in the series with BMMC [2] stood at 64.2%. In addition, in the series with BMMC [3], the Activity result was “>= 100%”.

Take `CC(C)=CCC[C@](C)(O)[C@H]1CC[C@]2(C)[C@@H]1[C@H](O)C[C@@H]1[C@@]3(C)Cc4nccnc4C(C)(C)[C@@H]3CC[C@]12C`: the inhibition at 1 µM in the series on BMMC [1] is 43.7%. Moreover, in the series with BMMC [2], the inhibition at 5 µM is 100%. In the series on BMMC [3], the Activity entry was “>= 100%”.

For the compound `CC(C)=CCC[C@](C)(O)[C@H]1CC[C@]2(C)[C@@H]1[C@@H](O)C[C@@H]1[C@@]3(C)Cc4cnc(C)nc4C(C)(C)[C@@H]3CC[C@]12C`, in the series on BMMC [3], the Activity result was “>= 100%”. The inhibition at 0.1 µM in the series with BMMC [4] was 84.4%. The inhibition at 0.01 µM in the series with BMMC [5] is 0%.

As for `CC(C)=CCC[C@](C)(O)[C@H]1CC[C@]2(C)[C@@H]1[C@H](O)C[C@@H]1[C@@]3(C)Cc4cnc(-c5ccccc5)nc4C(C)(C)[C@@H]3CC[C@]12C`, the inhibition at 1 µM in the series on BMMC [1] was 45.5%. Moreover, in the series on BMMC [3], the Activity entry is given as “>= 100%”. Further, the inhibition at 0.1 µM in the series with BMMC [4] came to 0%.

Take `CC(C)=CCC[C@](C)(O)[C@H]1CC[C@]2(C)[C@@H]1[C@H](O)C[C@@H]1[C@@]3(C)Cc4cnn(-c5ccccc5)c4C(C)(C)[C@@H]3CC[C@]12C`: the inhibition at 1 µM in the series with BMMC [1] came out at 0%. The inhibition at 5 µM with BMMC [2] was 12.9%. Further, in the series with BMMC [3], the Activity result is “>= 100%”.

`CC(C)=CCC[C@](C)(O)[C@H]1CC[C@]2(C)[C@@H]1[C@H](O)C[C@@H]1[C@@]3(C)Cc4cnc(N)nc4C(C)(C)[C@@H]3CC[C@]12C`: the inhibition at 1 µM in the series with BMMC [1] stood at 100%. In the series with BMMC [3], the Activity result is “>= 100%”. Besides, the inhibition at 0.1 µM in the series with BMMC [4] was found to be 51.2%.
